Test results from patent US7078499B2, “Nucleotide analogues comprising a reporter moiety and a polymerase enzyme blocking moiety” (GE Healthcare UK Limited, priority 2000, dated 2006).

Legend:
Type in all cases: biochemical
Parameters in all cases: key to result of incorporation (termination / further chain extension): T: Incorporation results in termination; E: Incorporation permits further chain extension; T/E: Predominant product is primer extended by one base, but evidence of some further extension also observed
[1] = target: T1, Tth DNA polymerase (Thermus thermophilus, UniProt P52028); assay: Thermostable DNA polymerase primer extension, Tth; conditions: DNA template, 45° C. for 20–40 minutes; for primer extended by at least one base within assay time (grade): TTP replaced entirely by test compound
T1 construct: purchased APBiotech
Experimental: (§1) DNA polymerase assays were performed using Sequence 1 as primer and Sequence 2 as template. • Sequence 1 5′[Cy3]TAACTCATTAACAGGATC 3′ • Sequence 2 5′AT TCGCGGTATTCTGGTATGAAGCTTTTAGATCCTGTTAATGAGTTA GTA3′
(§2) The template (Sequence 2) was designed such that the base (underlined) immediately adjacent to the 3′ end of the hybridised primer is complementary to the nucleotide test compound. Nucleotide test compounds were compounds (6) (4′-C-(glycylaminomethyl)thymidine triphosphate), (8) (4′-C-(N-trifluoroacetyaminomethyl)thymidine triphosphate) and (9) (4′-C-(aminomethyl)thymidine triphosphate) as described above.
(§3) Primer extension reactions were performed using the above primers in the presence of 40 to 80 μM of nucleotide triphosphates. Positive control reactions contained all four native nucleotide triphosphates. For the other reactions the TTP was replaced with either a 2:1 ratio of […] for the terminator control, or entirely by the test compound The enzymes were used at a final concentration of 0.175 units/μl and a magnesium ion concentration of 2.5 mM in buffers supplied by the manufacturer. The primer and template concentrations were 0.5 pmol/μl and 2 pmol/μl respectively.
(§4) Extension reactions with thermophilic enzymes were performed by initially denaturing the fully assembled reactions at 70° C. for 5 min. followed by 45° C. for 20–40 minutes. The following enzymes were used: Taq DNA polymerase (Taq); Thermosequenase (TS); Thermosequenase II (TSII); Thermosequenase E (TSE), Tfl DNA polymerase (Tfl); Tth DNA polymerase (Tth), deltaTts DNA polymerase (deltaTts), deltaTts D DNA polymerase (dettaTTSD) (all from APBiotech); Pfu DNA polymerase (Pfu) (Stratagene Ltd); Vent™ DNA polymerase (Vent) (New England Biolabs).
(§5) The reactions were stopped by adding a 0.5 volume aliquot of 80% formamide containing 0.1% (w/v) bromophenol blue and 0.1% (w/v) cresol blue. The reaction products were separated by denaturing gel electrophoresis at a constant power of 45 W on 16% polyacrylamide gels containing 50% urea.
(§6) Gels were scanned for Cy3 fluorescence on a Molecular Dynamics Fluorimager and the data analysed using Molecular Dynamics ImageQuant 5 software.
(§7) The incorporation of a test nucleotide triphosphate results in the appearance on a polyacrylamide gel of a single band corresponding to a single base extension product. If, however, the enzyme adds additional bases then further bands would be observed that corresponded to either the full-length product or positions of other complementary bases in the template.

[2] = test system: deltaTts DNA polymerase; assay: Thermostable DNA polymerase primer extension, delta Tts; conditions: DNA template, 45° C. for 20–40 minutes; for primer extended by at least one base within assay time (grade): TTP replaced entirely by test compound
Experimental: as §1, §2, §3, §4, §5, §6, §7

[3] = target: T2, T7 DNA polymerase (Escherichia phage T7, UniProt P00581); assay: Mesophilic DNA polymerase primer extension, T7; conditions: DNA template, 37° C. for 20–40 minutes; for primer extended by at least one base within assay time (grade): TTP replaced entirely by test compound
T2 construct: purchased AP Biotech
Experimental: as §1, §2, §3
Extension reactions preformed with mesophilic polymerases were carried out by mixing all the components of the reaction except the enzyme and heating to 70° C. for 5 min. After the reactions had cooled to room temperature 0.175 units of the enzyme were added and the reactions heated to 37° C. for 20–40 minutes. The following enzymes were used: T7 DNA polymerase (T7); Sequenase 2™ (Seq); Klenow fragment of DNA polymerase 1 (Klen); phi-29 DNA polymerase (Phi-29); T4 DNA polymerase (T4) (all from AP Biotech) and Bst DNA polymerase (Bst) (Cambio Ltd).
as §5, §6, §7

[4] = test system: Thermosequenase II; assay: Thermostable polymerase under reverse transcription conditions, TS II; conditions: RNA template, 2.5 mM Manganese ions; for primer extended by at least one base within assay time (grade): Tth reaction buffer
Experimental: as §1, §2, §3, §4
Reverse transcriptase reactions were performed essentially as described above for thermophilic and mesophilic enzymes. The template for these reactions was the RNA equivalent of sequence 2. All the thermophilic enzymes were assayed in Tth reaction buffer (Cambio Ltd, Cambridge UK) containing 2.5 mM Manganese ions. The following enzymes were used: Thermosequenase (TS1); Thermosequenase II (TSII); delta Tts DNA polymerase (deltaTts); delta Tts D DNA polymerase (deltaTtsD) (all from APBiotech); Retrotherm reverse transcriptase (Retroth) (Cambio Ltd); Tth DNA polymerase (Tth) (Cambio Ltd.).
as §5, §6, §7

T1 sequence (P52028 whole entry): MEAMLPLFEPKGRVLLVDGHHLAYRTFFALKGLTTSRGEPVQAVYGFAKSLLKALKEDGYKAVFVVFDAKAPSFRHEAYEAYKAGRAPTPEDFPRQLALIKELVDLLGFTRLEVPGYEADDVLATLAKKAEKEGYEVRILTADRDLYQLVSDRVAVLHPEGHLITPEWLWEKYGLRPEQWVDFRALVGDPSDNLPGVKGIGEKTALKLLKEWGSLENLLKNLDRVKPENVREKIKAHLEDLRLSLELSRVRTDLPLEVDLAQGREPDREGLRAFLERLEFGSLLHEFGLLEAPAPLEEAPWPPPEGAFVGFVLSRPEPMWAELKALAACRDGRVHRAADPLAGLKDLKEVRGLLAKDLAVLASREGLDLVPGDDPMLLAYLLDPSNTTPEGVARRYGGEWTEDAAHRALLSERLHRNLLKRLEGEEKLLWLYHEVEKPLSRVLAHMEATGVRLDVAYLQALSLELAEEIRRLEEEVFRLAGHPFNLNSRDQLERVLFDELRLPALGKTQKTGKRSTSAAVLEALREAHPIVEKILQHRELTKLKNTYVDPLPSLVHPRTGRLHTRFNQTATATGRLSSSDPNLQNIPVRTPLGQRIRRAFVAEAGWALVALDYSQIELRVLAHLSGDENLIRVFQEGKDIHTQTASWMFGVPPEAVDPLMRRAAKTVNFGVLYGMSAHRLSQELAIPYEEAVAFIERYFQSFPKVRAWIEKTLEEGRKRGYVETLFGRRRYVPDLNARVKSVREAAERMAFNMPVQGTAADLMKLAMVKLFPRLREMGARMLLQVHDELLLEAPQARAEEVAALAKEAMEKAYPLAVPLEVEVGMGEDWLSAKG
T2 sequence (P0AA25 2-109): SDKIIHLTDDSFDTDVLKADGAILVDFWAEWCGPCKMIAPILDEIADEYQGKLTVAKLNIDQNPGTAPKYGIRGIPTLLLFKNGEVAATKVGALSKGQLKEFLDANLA
T2 sequence (P00581 whole entry): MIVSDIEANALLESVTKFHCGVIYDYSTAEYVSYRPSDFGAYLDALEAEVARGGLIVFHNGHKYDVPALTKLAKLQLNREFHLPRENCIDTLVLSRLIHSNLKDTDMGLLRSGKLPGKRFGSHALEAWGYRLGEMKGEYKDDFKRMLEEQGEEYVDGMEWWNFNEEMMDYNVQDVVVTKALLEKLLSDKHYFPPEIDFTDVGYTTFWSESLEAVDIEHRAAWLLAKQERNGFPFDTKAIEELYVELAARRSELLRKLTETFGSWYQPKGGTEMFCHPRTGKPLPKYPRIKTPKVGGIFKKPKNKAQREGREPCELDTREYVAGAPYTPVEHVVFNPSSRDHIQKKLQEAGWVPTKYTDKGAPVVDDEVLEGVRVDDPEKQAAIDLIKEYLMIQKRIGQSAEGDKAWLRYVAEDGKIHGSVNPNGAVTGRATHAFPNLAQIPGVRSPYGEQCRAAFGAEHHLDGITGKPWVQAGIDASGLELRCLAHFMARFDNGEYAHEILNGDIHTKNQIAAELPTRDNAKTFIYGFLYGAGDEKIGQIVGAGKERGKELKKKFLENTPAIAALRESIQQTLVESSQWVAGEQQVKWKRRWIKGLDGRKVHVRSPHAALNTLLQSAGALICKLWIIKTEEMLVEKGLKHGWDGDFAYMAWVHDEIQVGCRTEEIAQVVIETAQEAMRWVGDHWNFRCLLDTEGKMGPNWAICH

4′-C-(Aminomethyl)thymidine triphosphate [compound (9)]
result of incorporation (termination / further chain extension) [1]: T | primer extended by at least one base within assay time (grade) [1]: ++ (up to 75% of primer extended by at least one base within assay time) | result of incorporation (termination / further chain extension) [2]: T | primer extended by at least one base within assay time (grade) [2]: +T | result of incorporation (termination / further chain extension) [3]: T/E | primer extended by at least one base within assay time (grade) [3]: +/− (up to 25% of primer extended by at least one base within assay time) | result of incorporation (termination / further chain extension) [4]: E | primer extended by at least one base within assay time (grade) [4]: ++ (up to 75% of primer extended by at least one base within assay time)

Cc1cn([C@H]2C[C@H](O)[C@@](CNC(=O)C(F)(F)F)(COP(=O)(O)OP(=O)(O)OP(=O)(O)O)O2)c(=O)[nH]c1=O [compound (8), 4′-C-(N-trifluoroacetylaminomethyl)thymidine triphosphate]
result of incorporation (termination / further chain extension) [1]: T | primer extended by at least one base within assay time (grade) [1]: ++ (up to 75% of primer extended by at least one base within assay time) | result of incorporation (termination / further chain extension) [2]: T | primer extended by at least one base within assay time (grade) [2]: + (up to 50% of primer extended by at least one base within assay time) | result of incorporation (termination / further chain extension) [3]: T/E | primer extended by at least one base within assay time (grade) [3]: +/− (up to 25% of primer extended by at least one base within assay time) | result of incorporation (termination / further chain extension) [4]: E | primer extended by at least one base within assay time (grade) [4]: + (up to 50% of primer extended by at least one base within assay time)

4′-C-(Glycylaminomethyl)thymidine triphosphate [compound (6)]
result of incorporation (termination / further chain extension) [1]: T | primer extended by at least one base within assay time (grade) [1]: + (up to 50% of primer extended by at least one base within assay time) | result of incorporation (termination / further chain extension) [2]: T | primer extended by at least one base within assay time (grade) [2]: + (up to 50% of primer extended by at least one base within assay time) | result of incorporation (termination / further chain extension) [3]: T/E | primer extended by at least one base within assay time (grade) [3]: +/− (up to 25% of primer extended by at least one base within assay time) | result of incorporation (termination / further chain extension) [4]: E | primer extended by at least one base within assay time (grade) [4]: + (up to 50% of primer extended by at least one base within assay time)
